Data published in US20240368351A1, “FACTORS CONTROLLING DRUG RELEASE IN CROSS-LINKED POLY(VALEROLACTONE) BASED MATRICES” (Pendant Biosciences, Inc., priority 2019, published 2024).
≈ marks a conversion by molar mass, not a printed value. Each block holds one compound with its values, some of them ahead of it.

What was measured:
[1] = Solubility of Drug X in organic solvents and water; format: physicochemical
[2] = In vitro drug release from microparticles; format: physicochemical
Source text: There is no significant difference with Mesh, NaCl, and EtOH for release rate. Drug X loaded MPs show insufficient washing (high t=0) and burst release in a day.
Method: We will use a dialysis bag to properly change release media without loss of microparticle. This will prevent accumulation of Drug X degradation over time and allow more accurate release analysis. We will examine release with Drug X-loaded microparticle in different media (i.e. only PBS at pH 7.5).
(§1) Method: Drug X-loaded microparticle in release media will be taken after 1 hrs and utilized to extract residue Drug X from microparticle.

[3] = Extraction and recovery of Drug X from discs and microparticles (stability in polymer matrix); format: physicochemical
Method: In Table 53, a study was conducted in which a Drug X-loaded disc was placed in 10 mL of dichloromethane (DCM) for 8 hr at room temperature to extract Drug X, and DCM was removed using a rotary evaporator at 25° C. This extraction process was repeated two times. The extracted drug dissolved in a acetonitrile (ACN) was filtered using 0.45 μm a nylon membrane and measured by HPLC for extraction efficiency.
as §1
We took out a disc after 2 weeks of release and freeze fried it. Then, the residual Drug X remaining in discs was extracted using dichloromethane to confirm Drug X stability in the disc.

[4] = cited from earlier work
blood plasma protein = conditions: cited from earlier work
[5] = logP (octanol-water partition) by shake tube method; format: physicochemical; conditions: read-out: Calculated LogP
[6] = Drug solubility in different release media (PBS with Tween 80 or SDS); format: physicochemical; conditions: release media (PBS with Tween 80 or SDS), 37 °C, pH 7.4, aqueous with cosolvent or surfactant or cyclodextrin, thermodynamic from solid
Method: Mikkelsen, L. M., Enzyme solubility in liquid detergent and use of detergent composition. […] Crotts, G.; Park, T. G. Protein delivery from poly(lactic-co-glycolic acid) biodegradable microspheres: Release kinetics and stability issues. […] FDA.
The solutions were centrifuged at 8000 rpm for 10 minutes, and a 1 ml aliquot was withdrawn, filtered through a 0.45 μm nylon membrane, and analyzed by HPLC.

[7] = pure PBS pH 7.4; cited from earlier work
[8] = system: L929 mouse fibroblast cells
Method: Cytotoxicity evaluation: CPs were incubated in culture media at a surface area to volume ratio of 1.25 cm^2/mL for 48 h. […] The L929 fibroblast cells were cultured and routinely maintained in Dulbecco's modified Eagle's medium (DMEM) supplemented with 10% fetal bovine serum (FBS) and 1% penicillin-streptomycin. The cells were grown in a monolayer in tissue culture flasks incubated at 37° C. and 5% CO2 at 90% relative humidity. Cells were counted and seeded in 96-well plates at a density of 2000 cells/well, which was determined to be the optimum cell density. After 24 h incubation, growth media was aspirated and replaced with either 150 μL CPs extracts at a surface area to volume ratio of 1.25 cm^2/mL or the same volume of extraction media that had been serially diluted to the above concentrations. Following 24, 48, and 72 h incubation periods, cell viability was evaluated using the MTS assay. Specifically, the extraction media was aspirated and replaced with 200 μL of fresh media followed by 20 μL of MTS reagent, and the cells were incubated at 37° C. for 1.5 h. Cell viability was measured by optical absorbance at 2=490 nm using a Cytation™ 5 Cell Imaging Multi-Mode Reader (BioTek, Vermont). […]
The cytotoxicities of the cross-linked matrices were evaluated in L929 mouse fibroblast cells using the extraction dilution method (FIG. 16).

Compound: CC(C)OC(=O)[C@H](C)N[P@](=O)(CO[C@H](C)Cn1cnc2c(N)ncnc21)Oc1ccccc1 [Drug X]
Solubility in EtOH/DMSO (50/50) ([1]; 5 mg per 100 mL or μL): Soluble, and
Solubility in DMSO/Water (50/50) ([1]; 5 mg per 200 mL or μL): Insoluble
Solubility in Water ([1]; 5 mg per 200 mL or μL): Insoluble
time within which most of Drug X is released from MP [2]: ≤ 1 h
Drug X remained inside the MP after extraction ([2]; after 1 hr release): around 100 μg
degradation (second HPLC peak) in release and extraction samples ([3]; 1 hr time point, microparticles): no second peak detected
Drug X recovered from the extraction ([3]; after two-day release): ~35%
drug recovered from the discs (release & extraction) ([3]; disc after 2 weeks of release, dichloromethane extraction): 88-93%
Drug X released ([3]; during the two-day release): ~50%
extraction efficiency ([3]; in the disc): 85%
total recovered of the encapsulated Drug X ([3]; release plus extraction): 83%-90%
Log P [4]: 1.6
Water solubility [4]: (4.86 mg/mL)
Water solubility (words) [4]: Soluble in water
pKa [4]: 2.74
bound to blood plasma protein (blood plasma protein): 80%

logP [5]: 2.3
solubility at 48 h [6]: 287 ± 56.9 µg/mL (≈ 661 µM)
Compound: CC1(C)O[C@@H]2C[C@H]3[C@@H]4CCC5=CC(=O)C=C[C@]5(C)[C@@]4(F)[C@@H](O)C[C@]3(C)[C@]2(C(=O)CO)O1 [Triamcinolone acetonide, triamcinolone acetonide]
TAA solubility [7]: 2.1 µg/mL

Compound: high density polyethylene [HDPE]
decrease in cell viability relative to the untreated control [8]: approximately 66%
